Laboratory results from ChEMBL document CHEMBL4828724 (Eur J Med Chem, 2021).
Values belong to the compound of their own block, whether it stands above or below them.

Legend:
[1] = biological target: Synaptic vesicular amine transporter (Rattus norvegicus) (UniProt Q01827); assay: Inhibition of [3H]DA uptake at VMAT2 in rat striatal synaptosome at 1 uM incubated for 10 mins followed by [3H]DA addition and measured after 20 mins by TopCount scintillation counting method relative to control; type: subcellular; conditions: Striatum, time 30.0 min
[2] = Metabolic stability in monkey liver microsomes assessed as parent compound remaining at 1 uM in the presence of NADPH measured after 60 mins by LC-MS/MS analysis; type: ADME, Macaca mulatta, Microsome; conditions: rhesus monkey
[3] = Metabolic stability in monkey liver microsomes assessed as intrinsic clearance at 1 uM in the presence of NADPH measured for 60 mins by LC-MS/MS analysis; type: ADME, Macaca mulatta, Microsome; conditions: rhesus monkey, read-out: CLH
[4] = biological target: T1, Synaptic vesicular amine transporter (Rattus norvegicus, UniProt Q01827); assay: Inhibition of [3H]DA uptake at VMAT2 in rat striatal synaptosome incubated for 10 mins followed by [3H]DA addition and measured after 20 mins by TopCount scintillation counting method; type: subcellular, Striatum
[5] = Metabolic stability in mouse liver microsomes assessed as intrinsic clearance at 1 uM in the presence of NADPH measured for 60 mins by LC-MS/MS analysis; type: ADME, Microsome; conditions: read-out: CLH
[6] = Metabolic stability in mouse liver microsomes assessed as parent compound remaining at 1 uM in the presence of NADPH measured after 60 mins by LC-MS/MS analysis; type: ADME, Microsome; conditions: liver microsomes, read-out: Stability
[7] = Metabolic stability in human liver microsomes assessed as intrinsic clearance at 1 uM in the presence of NADPH measured for 60 mins by LC-MS/MS analysis; type: ADME, Microsome; conditions: read-out: CLH
[8] = Metabolic stability in human liver microsomes assessed as parent compound remaining at 1 uM in the presence of NADPH measured after 60 mins by LC-MS/MS analysis; type: ADME, Microsome; conditions: read-out: Stability
[9] = biological target: Synaptic vesicular amine transporter (Rattus norvegicus) (UniProt Q01827); assay: Inhibition of [3H]DA uptake at VMAT2 in rat striatal synaptosome at 0.1 uM incubated for 10 mins followed by [3H]DA addition and measured after 20 mins by TopCount scintillation counting method relative to control; type: subcellular; conditions: Striatum, time 30.0 min
[10] = biological target: T1, Synaptic vesicular amine transporter; assay: Inhibition of [3H]DTBZ binding to VMAT2 in rat brain incubated for 30 mins by liquid scintillation spectrometry analysis; type: tissue-based
[11] = biological target: Voltage-gated inwardly rectifying potassium channel KCNH2 (Homo sapiens, UniProt Q12809); assay: Inhibition of human ERG
[12] = Metabolic stability in human liver microsomes assessed as half life at 1 uM in the presence of NADPH measured for 60 mins by LC-MS/MS analysis; type: ADME, Microsome
[13] = Metabolic stability in monkey liver microsomes assessed as half life at 1 uM in the presence of NADPH measured for 60 mins by LC-MS/MS analysis; type: ADME, Macaca mulatta, Microsome; conditions: rhesus monkey
[14] = Metabolic stability in mouse liver microsomes assessed as half life at 1 uM in the presence of NADPH measured for 60 mins by LC-MS/MS analysis; type: ADME, Microsome; conditions: liver microsomes

T1 sequence (Q01827 whole entry): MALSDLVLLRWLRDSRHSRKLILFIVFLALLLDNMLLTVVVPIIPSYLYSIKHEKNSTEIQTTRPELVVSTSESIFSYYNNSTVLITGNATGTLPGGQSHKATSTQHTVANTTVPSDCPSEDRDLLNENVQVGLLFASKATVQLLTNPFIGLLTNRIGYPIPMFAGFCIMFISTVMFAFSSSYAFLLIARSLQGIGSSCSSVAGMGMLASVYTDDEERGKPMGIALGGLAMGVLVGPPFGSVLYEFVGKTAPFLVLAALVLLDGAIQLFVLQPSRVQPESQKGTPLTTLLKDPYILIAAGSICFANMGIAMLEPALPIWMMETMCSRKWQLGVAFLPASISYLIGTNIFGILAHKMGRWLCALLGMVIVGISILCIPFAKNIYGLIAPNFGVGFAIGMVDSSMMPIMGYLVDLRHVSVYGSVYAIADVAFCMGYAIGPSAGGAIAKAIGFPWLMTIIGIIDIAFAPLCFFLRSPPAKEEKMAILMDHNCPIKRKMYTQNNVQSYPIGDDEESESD
Chain of Synaptic vesicular amine transporter (Rattus norvegicus) (Q01827 whole entry): as above
Chain of Voltage-gated inwardly rectifying potassium channel KCNH2 (Q12809 whole entry): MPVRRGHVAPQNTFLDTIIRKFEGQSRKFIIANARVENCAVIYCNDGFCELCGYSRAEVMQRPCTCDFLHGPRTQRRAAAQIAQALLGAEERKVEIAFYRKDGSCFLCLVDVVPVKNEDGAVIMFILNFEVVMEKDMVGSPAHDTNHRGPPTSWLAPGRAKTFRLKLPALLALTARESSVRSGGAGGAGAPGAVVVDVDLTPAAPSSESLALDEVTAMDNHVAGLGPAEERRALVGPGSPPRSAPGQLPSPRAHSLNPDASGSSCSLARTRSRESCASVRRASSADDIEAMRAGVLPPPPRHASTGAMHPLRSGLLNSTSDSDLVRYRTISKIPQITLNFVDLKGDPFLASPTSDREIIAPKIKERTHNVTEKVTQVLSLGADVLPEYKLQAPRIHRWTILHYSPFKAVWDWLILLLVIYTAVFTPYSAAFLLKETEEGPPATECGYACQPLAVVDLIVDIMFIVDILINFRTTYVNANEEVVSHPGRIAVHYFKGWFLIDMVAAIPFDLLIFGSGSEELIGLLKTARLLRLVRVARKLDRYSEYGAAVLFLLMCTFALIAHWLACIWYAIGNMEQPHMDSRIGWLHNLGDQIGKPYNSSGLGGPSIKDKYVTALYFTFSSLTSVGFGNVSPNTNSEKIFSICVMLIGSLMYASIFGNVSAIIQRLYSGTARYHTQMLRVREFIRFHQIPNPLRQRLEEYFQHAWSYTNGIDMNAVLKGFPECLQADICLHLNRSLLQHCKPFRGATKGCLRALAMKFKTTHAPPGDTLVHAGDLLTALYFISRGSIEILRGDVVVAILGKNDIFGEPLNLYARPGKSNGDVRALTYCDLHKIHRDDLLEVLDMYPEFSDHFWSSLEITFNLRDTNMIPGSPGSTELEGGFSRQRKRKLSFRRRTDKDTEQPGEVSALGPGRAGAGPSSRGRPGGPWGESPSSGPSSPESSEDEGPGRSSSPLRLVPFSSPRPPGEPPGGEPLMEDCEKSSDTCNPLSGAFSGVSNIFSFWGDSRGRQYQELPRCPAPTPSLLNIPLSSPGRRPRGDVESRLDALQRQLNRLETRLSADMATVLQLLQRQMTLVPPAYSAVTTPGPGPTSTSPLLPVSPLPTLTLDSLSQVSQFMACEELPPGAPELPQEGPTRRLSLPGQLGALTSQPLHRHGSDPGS

Structure (SMILES): COc1cc2c(cc1OC)[C@H]1C[C@@H](OC(=O)[C@@H](N)C(C)C)[C@H](CC(C)C)CN1CC2 [VALBENAZINE]
- IC50 [11]: 1700 nM

Structure (SMILES): CCOc1cc2c(cc1OCCCOC)C1CC(O)C(CC(C)C)CN1CC2 (stereo unspecified)
- IC50 [10]: 73.2 nM

Structure (SMILES): CCOc1cc2c(cc1OCCCF)C1CC(O)C(CC(C)C)CN1CC2 (stereo unspecified)
- IC50 [10]: > 500 nM

Structure (SMILES): COCCCOc1cc2c(cc1OC)C1CC(O)C(CC(C)C)CN1CC2 (stereo unspecified)
- inhibition [1]: 92.1%
- IC50 [4]: 64.9 nM
- inhibition [9]: 84.9%

Structure (SMILES): CCOc1cc2c(cc1OCCCOC)CCN1CC(CC(C)C)C(O)CC21 (stereo unspecified)
- IC50 [10]: 200 nM

Structure (SMILES): COc1cc2c(cc1OC)C1CC(O)(CO)C(CC(C)C)CN1CC2 (stereo unspecified)
- inhibition [1]: 99.7%
- IC50 [10]: 8.02 nM
- IC50 [4]: 5.14 nM
- CLint scaled at 1 µM [5]: 143 mL/min/kg
- CLint scaled at 1 µM [7]: 109 mL/min/kg
- inhibition [9]: 99.1%

Continued, values first:

- inhibition [1]: 99.9%
- Stability ([2]; microsomes, 1 h, 1 µM): 23.7%
- CLint scaled at 1 µM [3]: 131 mL/min/kg
- IC50 [4]: 5.72 nM
- CLint scaled at 1 µM [5]: 283 mL/min/kg
- remaining at 1 h, 1 µM [6]: 9.4%
- CLint scaled at 1 µM [7]: 14.4 mL/min/kg
- remaining at 1 h, 1 µM [8]: 66.8%
- inhibition [9]: 99.9%
Structure (SMILES): CCOc1cc2c(cc1OC)C1CC(O)C(CC(C)C)CN1CC2 (stereo unspecified)

- IC50 [10]: 210 nM
Structure (SMILES): CC(C)CC1CN2CCc3cc(OCC4CC4)c(OCC4CC4)cc3C2CC1O (stereo unspecified)

- IC50 [10]: 12.5 nM
- remaining at 1 h, 1 µM ([2]; liver microsomes, read-out: Stability): 6.6%
- CLint scaled at 1 µM [3]: 120 mL/min/kg
- CLint scaled at 1 µM [5]: 535 mL/min/kg
- remaining at 1 h, 1 µM [6]: 1.3%
- CLint scaled at 1 µM [7]: 22.5 mL/min/kg
- half-life at 1 µM [12]: 55.4 min
- half-life at 1 µM [13]: 15.6 min
- half-life at 1 µM [14]: 10.3 min
- remaining at 1 h, 1 µM [8]: 47.3%
Structure (SMILES): CCCOc1cc2c(cc1OCC)C1CC(O)C(CC(C)C)CN1CC2 (stereo unspecified)

- IC50 [10]: 56.6 nM
Structure (SMILES): CCOc1cc2c(cc1OCCCF)CCN1CC(CC(C)C)C(O)CC21 (stereo unspecified)

- IC50 [10]: > 500 nM
Structure (SMILES): CCOc1cc2c(cc1OCC1CC1)C1CC(O)C(CC(C)C)CN1CC2 (stereo unspecified)

- IC50 [10]: > 500 nM
Structure (SMILES): CCOc1cc2c(cc1OC)CCN1CC(CC(C)C)C(O)CC21 (stereo unspecified)
